Results from US9204653B2, “5-fluoro pyrimidine derivatives” (DOW AGROSCIENCES LLC, priority 2008, dated 2015).
Read-outs that look alike come from different tables or passages of the source.

Assays:
[1] = system: Mycosphaerella fijiensis; BAYER Code MYCOFI; assay: Black Sigatoka disease of banana; format: in vivo, Mycosphaerella fijiensis on field grown banana plants; conditions: % disease control rating, banana leaves, natural inoculum
Experimental: 5. Evaluation of Fungicidal Activity: Black Sigatoka Disease of Banana (Mycosphaerella fijiensis; BAYER Code MYCOFI): […] The leaves were subsequently allowed to become infected by natural inoculum, and were visually assessed for percent disease control ˜40-45 days later. The following tables present the activity of typical compounds of the present disclosure when evaluated in these experiments. The effectiveness of the test compounds in controlling disease was determined by assessing the severity of disease on treated plants, then converting the severity to percent control based on the level of disease on untreated, inoculated plants. In each case of Tables I-V the rating scale is as follows: […]

[2] = system: Cercospora beticola; Bayer Code CERCBE; assay: Leaf spot of sugar beets; format: in vivo, Cercospora beticola on sugar beets (variety HH-88); conditions: 24 h, % disease control rating, one day protectant
[3] = system: Venturia inaequalis; Bayer Code VENTIN; assay: Apple scab; format: in vivo; conditions: 24 h, % disease control rating, one day protectant
[4] = system: Mycosphaerella graminicola; Anamorph: Septoria tritici; Bayer Code SEPTTR; assay: Leaf blotch of wheat, foliar fungicide treatment, one day protectant (1DP) or three day curative (3DC); format: in vivo, Septoria tritici on wheat plants (variety Yuma); conditions: Zymoseptoria tritici, percent disease control rating

Nc1nc(OCc2ccc(F)cc2)ncc1F [Compound 1, 5-Fluoro-2-(4-fluorobenzyloxy)pyrimidin-4-amine]
MYCOFI 1 DP 50 ppm ([1]; 50 ppm): C (26-50) | MYCOFI 1 DP 200 ppm ([1]; 200 ppm): B (51-75) | pest or weed control at 25 ppm ([2]; 25 ppm, read-out: CERCBE 1 DP 25 ppm): 26 to 50% | pest or weed control at 75 ppm ([2]; 75 ppm, read-out: CERCBE 1 DP 75 ppm): 26 to 50% | pest or weed control at 25 ppm ([3]; 25 ppm, read-out: VENTIN 1 DP 25 ppm): 76 to 100% | pest or weed control at 75 ppm ([3]; 75 ppm, read-out: VENTIN 1 DP 75 ppm): 76 to 100% | pest or weed control at 25 ppm ([4]; 24 h, one day protectant (1DP), read-out: SETTTR 1DP 25 ppm): 76 to 100% | pest or weed control at 100 ppm ([4]; 24 h, one day protectant (1DP), read-out: SEPTTR 1DP 100 ppm): 76 to 100% | pest or weed control at 25 ppm ([4]; 72 h, three day curative (3DC), read-out: SEPTTR 3DC 25 ppm): 76 to 100% | pest or weed control at 100 ppm ([4]; 72 h, three day curative (3DC), read-out: SEPTTR 3DC 100 ppm): 76 to 100%
